{"source": "patent US20210079384A1", "about": "“NON-INVASIVE DETECTION OF RESPONSE TO A TARGETED THERAPY” (The Johns Hopkins University, priority 2018, published 2021)", "key": {"[1]": {"test_system": "advanced non-small cell lung cancer (NSCLC) patients", "test": "Cell-free tumor load (cfTL) in plasma cfDNA by TEC-Seq during TKI therapy", "assay_type": "in vivo, human", "settings": "single patient CGPLLU2 with metastatic disease; osimertinib 80 mg PO daily", "excerpt": "Serial blood was drawn from fifteen advanced non-small cell lung cancer (NSCLC) patients undergoing treatment with targeted tyrosine kinase inhibitors (TKIs), afatinib or osimertinib, to directly detect somatic sequence and structural alterations in cfDNA, to monitor ctDNA dynamics during therapy, to determine cell-free tumor burden, and to predict clinical outcome (FIG. 1). Liquid biopsies were obtained from 11 radiographic responders and four radiographic non-responders immediately prior to treatment (baseline), 6-22 days post treatment, and at serial time points until disease progression. […] Next, changes in cfTL were evaluated within hours to days after treatment compared to baseline and assessed whether cfTL could serve as a marker of patient outcome. […]\nFor all patients, serial blood draws were collected over the course of treatment with targeted inhibition for isolation of plasma and extraction of cell-free DNA (cfDNA) for genomic analyses. Time points were analyzed immediately prior to treatment for baseline assessment as well as 6-22 days post treatment and at serial time points until disease progression (Table S2).\nSequence and copy number alterations were detected in cfDNA for each patient at each time point analyzed and used a tiered approach to evaluate tumor burden. […]"}, "[2]": {"test_system": "advanced non-small cell lung cancer (NSCLC) patients", "test": "Progression-free survival by RECIST 1.1 CT assessment in NSCLC patients on TKI therapy", "assay_type": "in vivo, human", "settings": "single patient CGPLLU2 with metastatic disease; osimertinib 80 mg PO daily; subsequently developed resistance in the primary lung lesion", "excerpt": "Serial blood was drawn from fifteen advanced non-small cell lung cancer (NSCLC) patients undergoing treatment with targeted tyrosine kinase inhibitors (TKIs), afatinib or osimertinib, to directly detect somatic sequence and structural alterations in cfDNA, to monitor ctDNA dynamics during therapy, to determine cell-free tumor burden, and to predict clinical outcome (FIG. 1). Liquid biopsies were obtained from 11 radiographic responders and four radiographic non-responders immediately prior to treatment (baseline), 6-22 days post treatment, and at serial time points until disease progression. The ultrasensitive targeted error correction sequencing (TEC-Seq) approach (6) was used as well as whole genome sequencing to identify tumor-derived sequence alterations and chromosomal copy number changes in cell-free DNA (cfDNA). […] Next, changes in cfTL were evaluated within hours to days after treatment compared to baseline and assessed whether cfTL could serve as a marker of patient outcome.\nFor each patient, ˜5 ml of plasma were collected immediately prior to therapy (baseline), at 6-22 days after therapy initiation (median 16 days), and at additional serial time points until disease progression was confirmed by radiographic assessment (Tables S1 and S2). Target lesions were evaluated before therapy with CT/MRI imaging and approximately every six weeks until disease progression. […]"}}, "data": [{"smiles": "C=CC(=O)Nc1cc(Nc2nccc(-c3cn(C)c4ccccc34)n2)c(OC)cc1N(C)CCN(C)C", "note": "[osimertinib]", "values": [{"measurement": "change of cfTL from baseline to day 10", "setting": "[1]", "value": "rapid decline"}, {"measurement": "progression-free survival", "setting": "[2]", "value": 7.0, "unit": "months"}]}]}
